Source: PubChem BioAssay AID1919016 (Molecular Pharmacology Branch, DTP, NCI, 2023)
“And” between values parts separate entries of the source, which are not always exact repeats. Identical values can stand only once.

System: NCI-H196 complex spheroid growth, percent test/control
Experiment: Anticancer human tumor NCI-H196 cell line growth inhibition [AhR];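 also: seven days of drug exposure starting three days after plating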;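 as to viability, T/C: 100% = DMSO vehicle control wells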
Details: for viability, T/C: stronger effect = lower value
Text: Multicellular complex tumor spheroid response to aryl hydrocarbon receptor antagonists in combination with a variety of drugs and investigational agents in selected tumor cell lines
The current study was undertaken to assess response to aryl hydrocarbon receptor antagonists in combination with standard-of-care drugs and investigational agents in solid tumor complex spheroid models. Complex spheroids include a stromal component modeled by human endothelial cells (HUVEC) and fibroblasts modeled by human mesenchymal stem cells (MSCs). The concentration ranges selected for each drug and investigational agent were based upon clinically achievable concentrations if the clinical Cmax of the agent was known.
Compounds. The drugs and investigational agents: BAY 2416964 (NSC825713), GNF351 (NSC835774), CH-223191 (NSC835775), CPI-455 (NSC825282), aza-TdCyd (NSC777586), decitabine (NSC127716), belinostat (NSC758774), entinostat (NSC756642), pevonedistat (NSC761192), tazemetostat (NSC777109), talazoparib (NSC765396), olaparib (NSC753686), selinexor (NSC780203), nedisertib (M3814, NSC802822), bortezomib (NSC756655), venetoclax (NSC766270), doxorubicin (NSC123127), elimusertib (BAY189344, NSC800525), ceralasertib (AZD6738, NSC777638), TAK-243 (NSC785004), alisertib (NSC759677), etoposide (NSC141540), topotecan (NSC609699), eribulin (NSC707389), gemcitabine (NSC613327), carboplatin (NSC241240), cisplatin (NSC119875), and SN-38 (NSC673596) were obtained from the National Cancer Institute (NCI) Developmental Therapeutics Program Chemical Repository (32). The FDA-approved anticancer drug set is available from the Developmental Therapeutics Program at https://dtp.cancer.gov/organization/dscb/obtaining/available plates.htm. […] The stock solutions were prepared in dimethyl sulfoxide (DMSO, Sigma-Aldrich, St. Louis, MO, cat. D2650), except for the platinum compounds which were prepared in saline (Quality Biological, Gaithersburg, MD, cat. 114-055-101), at 800-fold the tested concentration and stored at -70 degrees C prior to their use. All drugs and investigational agents were tested over a range starting from a high concentration at or near the clinical Cmax and decreasing in half-log increments. If the clinical Cmax for an agent had not been determined, the highest concentration tested was 10 microM (Table 1).
Cell Culture. All cells were maintained in an incubator at 37 degrees C and 5% CO2 with 95% humidity. The PDC lines were cultured according to standard operating procedures established by the NCI PDMR (https://pdmr.cancer.gov). Briefly, all PDCs were thawed and cultured in Matrigel-coated flasks prepared with a working solution of 1X Ham's F-12 nutrient mix, without supplementation (Invitrogen, Waltham, MA, cat. 11765054), 100 U/mL penicillin-streptomycin (Invitrogen, cat. 15140122), and 2.5% Matrigel (Corning Inc., Corning, NY, cat. 354248) for the first three passages. All PDCs were cultured in complete DMEM/F-12 media containing advanced DMEM/F-12 (Invitrogen, cat. 12634028), 4.9% defined fetal bovine serum, heat inactivated (HyClone Laboratories Inc., Logan, UT, cat. SH30070.03HI), 389 ng/mL hydrocortisone (Sigma-Aldrich, cat. H4001), 9.7 ng/mL human EGF recombinant protein (Invitrogen, cat. PHG0313), 23.4 microg/mL adenine (Sigma-Aldrich, cat. A2786), 97.3 U/mL penicillin-streptomycin (Invitrogen, cat. 15140122), 1.9 mM L-glutamine (Invitrogen, cat. 25030081), and 9.7 microM Y-27632 dihydrochloride (Tocris Bioscience, Bristol, United Kingdom, cat. 1254). The PDCs were cultured in complete DMEM/F12 media without 10 microM Y-27632 dihydrochloride for at least two passages prior to the screen. The established cell lines NCI-H1341 and […] were cultured in DMEM/F-12, HEPES (Invitrogen, cat. 11330032), 5% defined fetal bovine serum (HyClone Laboratories Inc., cat. SH30070.03), ITS premix universal culture supplement [insulin (5 microg/mL), transferrin (5 microg/mL), and selenious acid (5 ng/mL)] […]

## NS(=O)(=O)OCC1CC(n2ccc3c(NC4CCc5ccccc54)ncnc32)CC1O (configuration not stated) + Cc1ccccc1N=Nc1ccc(NC(=O)c2ccnn2C)c(C)c1
Curve of first compound, second compound 0.1 µM
  IC50: > 10 µM
Curve of first compound, second compound 0.316 µM
  IC50: > 10 µM
Curve of first compound, second compound 1 µM
  IC50: > 10 µM
Curve of first compound, second compound 3.16 µM
  IC50: > 10 µM
Curve of first compound, second compound 10 µM
  IC50: 2.07 µM
Second compound 0.1 µM, first compound 0.0316 µM
  viability, T/C: 83.7%
Second compound 0.1 µM, first compound 0.1 µM
  viability, T/C: 84.2%
Second compound 0.1 µM, first compound 0.316 µM
  viability, T/C: 76.6%
Second compound 0.1 µM, first compound 1 µM
  viability, T/C: 55.9%
Second compound 0.1 µM, first compound 3.16 µM
  viability, T/C: 70.2%
Second compound 0.1 µM, first compound 10 µM
  viability, T/C: 70%
Second compound 0.316 µM, first compound 0.0316 µM
  viability, T/C: 79.7%
Second compound 0.316 µM, first compound 0.1 µM
  viability, T/C: 81.2%
Second compound 0.316 µM, first compound 0.316 µM
  viability, T/C: 81.5%
Second compound 0.316 µM, first compound 1 µM
  viability, T/C: 67.4%
Second compound 0.316 µM, first compound 3.16 µM
  viability, T/C: 74.6%
Second compound 0.316 µM, first compound 10 µM
  viability, T/C: 61%
Second compound 1 µM, first compound 0.0316 µM
  viability, T/C: 90.1%
Second compound 1 µM, first compound 0.1 µM
  viability, T/C: 87.6%
Second compound 1 µM, first compound 0.316 µM
  viability, T/C: 85.9%
Second compound 1 µM, first compound 1 µM
  viability, T/C: 60.6%
Second compound 1 µM, first compound 3.16 µM
  viability, T/C: 73.7%
Second compound 1 µM, first compound 10 µM
  viability, T/C: 60.8%
Second compound 3.16 µM, first compound 0.0316 µM
  viability, T/C: 82.4%
Second compound 3.16 µM, first compound 0.1 µM
  viability, T/C: 90.7%
Second compound 3.16 µM, first compound 0.316 µM
  viability, T/C: 81.6%
Second compound 3.16 µM, first compound 1 µM
  viability, T/C: 61.5%
Second compound 3.16 µM, first compound 3.16 µM
  viability, T/C: 60.9%
Second compound 3.16 µM, first compound 10 µM
  viability, T/C: 58.8%
Second compound 10 µM, first compound 0.0316 µM
  viability, T/C: 83.8%
Second compound 10 µM, first compound 0.1 µM
  viability, T/C: 87.1%
Second compound 10 µM, first compound 0.316 µM
  viability, T/C: 68.2%
Second compound 10 µM, first compound 1 µM
  viability, T/C: 55.5%
Second compound 10 µM, first compound 3.16 µM
  viability, T/C: 46.7%
Second compound 10 µM, first compound 10 µM
  viability, T/C: 47.4%

## COc1ccc([C@@H](O)c2cc(-c3ncnc4cc(N5CCOCC5)ccc34)c(F)cc2Cl)nn1
Compound 0.0316 µM
  viability, T/C: 100% and 96% and 105%
Compound 0.1 µM
  viability, T/C: 97.1% and 92.7% and 93.5%
Compound 0.316 µM
  viability, T/C: 97% and 91.1% and 94.3%
Compound 1 µM
  viability, T/C: 89.2% and 84.2% and 89.9%
Compound 3.16 µM
  viability, T/C: 85.3% and 81.3% and 89.7%
Compound 10 µM
  viability, T/C: 77.3% and 69% and 71.9%
Curve of compound
  IC50: > 10 µM
